Measured values taken from patent US7582415B2, “Rapid detection of replicating cells” (priority 2001, dated 2009).
In brackets after ≈: the same amount, converted by molar mass.

Experiments:
[1] = system: E. coli MG1655 (sensitive strain); experiment: microbe, parasite or virus in culture; conditions: Escherichia coli, MG1655, 5 h, read-out: zone of inhibition, segment of the E-test strip (minimal inhibitory concentration)
Experimental: This minimal inhibitory concentration is based on the visualization of zones with no growth, called the zone of inhibition. The zone of inhibition is traditionally measured by the naked eye after an overnight growth.
Experimental Methods: The strains, used in the example and described in Example 13, were diluted to 10^6 CFU/ml and plated on TSA media. […] The microcolonies growing on or near the test strip were imaged using microcolony autofluorescence and non-magnified large area imaging as in previous examples. After imaging, the plates were allowed to incubate overnight.

[2] = system: E. coli MG1655/pLafr I (resistant strain); experiment: E-test strip susceptibility test with autofluorescent microcolony imaging; type: cell-based; conditions: E-test strip 0.016-256 μg tetracycline, TSA, 5 hours at 37° C.
Experimental: After imaging, the plates were allowed to incubate overnight.

`CN(C)[C@@H]1C(O)=C(C(N)=O)C(=O)[C@@]2(O)C(O)=C3C(=O)c4c(O)cccc4[C@@](C)(O)[C@H]3C[C@@H]12` [tetracycline] was tested, and the MIC [1] was ~2 µg/mL (≈ 4.5 µM) and the “segment of the E-test strip near which the strain grows” value [2] was ~256 µg/mL.
